The values that follow come from US20240301409A1, “Chemically Modified Small Activating RNA” (RACTIGEN THERAPEUTICS, priority 2021, published 2024).

Oligonucleotides are written 5' to 3', each unit as a sugar letter and its base; * is a phosphorothioate linkage, no mark a phosphodiester; rarer units and linkages stand in square brackets, end groups in braces. Plain capitals give the bases only. m = 2'-O-methyl; r = 2'-OH (RNA); f = 2'-fluoro

Data set [1] has as its system J82 cells. The data set can be described thus: Cellular proliferation assay (CCK8) in J82 cells, combined with Mitomycin C or valrubicin. The class given is cell-based, human. The method, then:
J82 cells were transfected with RAG1-40-31 at concentrations of 0.1, 0.5, 1, 5, 10, 25 and 50 nM for 24 hours, and then Mitomycin C at concentrations of 1, 10, 100, 1000 and 10000 nM was added. The combined treatment was carried out with concentrations in pairs. After treatment, the proliferation of cells was detected using CCK8 kit. FIGS. 14A-14B show the relative proliferation proportion of J82 cells after the combined treatment with chemically modified saRNA RAG1-40-31 and valrubicin. […] Control and DMSO are the blank transfection control and the solvent for dilution control, respectively.
J82 cells were transfected with RAG1-40-31 at concentrations of 0.1, 0.5, 1, 5, 10, 25 and 50 nM for 24 hours, and then valrubicin at concentrations of 1, 10, 100, 1000 and 10000 nM was added. The combined treatment was carried out with concentrations in pairs. After treatment, the cellular proliferation was detected by CCK8 kit. FIGS. 15A-15B show the relative proliferation proportion of T24 cells after the combined treatment with chemically modified saRNA RAG1-40-31 and Mitomycin C. […] Control and DMSO are the blank transfection control and the solvent for dilution control, respectively.
(§1) Human bladder cancer cells Ku-7-LG (ATCC), J82 (ATCC) and T24 (ATCC) were cultured in McCoy medium (Gibco) comprising 10% calf serum (Sigma-Aldrich) and 1% penicillin/Streptomycin (Gibco). Cells were cultured at 37° C. under 5% CO2. Ku-7-LG, J82 and T24 cells were plated into 12-well plates at 10×10^4 cells per well, transfected with the small RNA at a concentration of 10 nM (unless otherwise specified) for three days, using RNAiMax (Invitrogen, Carlsbad, CA) according to the manufacturer's instructions. Two replicate wells were set for each treatment.
(§2) Cells were plated in a 96-well plate at 2˜4×10^3 cells/well, cultured overnight, and transfected with the oligonucleotide duplexes. Three days after transfection, CCK8 (Dojindo) was used to detect cellular proliferation following manufacturer's instructions. The experimental steps are briefly described as follows: 10 μL of CCK8 solution was added to each well, incubated at 37° C. for 1 hour, and then the absorbance at 450 nm was measured using a microplate reader.
In this example, chemically modified saRNA RAG1-40-31 was used in combination with clinical chemical agents to evaluate the suppressing effect of the combined agents on cancer cells.

Data set [2] deals with T24 cells. The data set is described as follows: Cellular proliferation assay (CCK8) in T24 cells, alone and combined with Mitomycin C or valrubicin. It counts as cell-based, human.
Excerpt: After the transfection, the number of viable cells was detected with a CCK8 kit, and plotted as the percentage of the blank control treatment group. […] A transfection sample without oligonucleotide served as a blank control. Non-specific duplex (dsCon) transfected sample served as a negative control. Data are presented as mean±SD of at least two independent experiments. The values below the dashed line indicate stronger growth inhibitory activity compared to duplex Rag1-40 without chemical modification.
T24 cells were transfected with RAG1-40-31 at concentrations of 0.1, 0.5, 1, 5, 10, 25 and 50 nM for 24 hours, and then Mitomycin C was added at concentrations of 1, 10, 100, 1000 and 10000 nM. The combined treatment was carried out with concentrations in pairs. After treatment, the cellular proliferation was detected by CCK8 kit. FIGS. 16A-16B show the relative proliferation proportion of T24 cells after the combined treatment with chemically modified saRNA RAG1-40-31 and valrubicin. […] Control and DMSO are the blank transfection control and the solvent for dilution control, respectively.
T24 cells were transfected with RAG1-40-31 at concentrations of 0.1, 0.5, 1, 5, 10, 25 and 50 nM for 24 hours, and then valrubicin at concentrations of 1, 10, 100, 1000 and 10000 nM was added. The combined treatment was carried out with concentrations in pairs. After treatment, the cellular proliferation was detected by CCK8 kit.
as §1, §2
It is known that p21 induction by saRNA is that a variety of tumor suppressor factors such as p21 protein suppress the proliferation of cancer cells. To evaluate the effect of chemically modified saRNAs on the function of cancer cells, cells (Ku-7-LG and T24) were transfected with 10 nM unmodified and modified saRNAs for 72 hours, and the cellular proliferation was determined by CCK8. […] Furthermore, there was a correlation between RNA activating activity (FIGS. 7A-7B) and suppression of cellular proliferation activity (FIGS. 8A-8B). Strong p21 activators are usually also strong cytostatics.

Data set [3] addresses T1, RNase A (Bos taurus, UniProt P61823).
T1 sequence (P61823 27-150): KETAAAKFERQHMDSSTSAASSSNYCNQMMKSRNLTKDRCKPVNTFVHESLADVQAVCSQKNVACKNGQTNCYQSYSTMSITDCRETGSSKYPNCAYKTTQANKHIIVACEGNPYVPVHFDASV
Description: The duplexes obtained at each time point above were each added to 1 μL of 10× loading buffer, and then frozen in liquid nitrogen. After incubation, all samples were detected for the double-stranded RNA by 4% agarose gel electrophoresis, and the content of each duplex was analyzed by Image J software.
The duplexes obtained at each time point indicated above were each added to 1 μL of 10× loading buffer, and then frozen in liquid nitrogen. After incubation, all samples were detected for the double-stranded RNA by 4% agarose gel electrophoresis, and the content of each duplex was analyzed by Image J software.
saRNA (1.5 μL, 10 μM) was incubated at a final concentration of 0.02 mg/mL in PBS in the presence of RNase A (Amresco, OH, USA) at 37° C. for different durations. At the end of the incubation, the mixture was snap frozen in liquid nitrogen to stop nuclease activity. Samples were analyzed on a 4% agarose gel and examined for duplex degradation.
All chemically modified duplexes (Rag1-40-1 to Rag1-40-32) were incubated with 0.02 μg/L of RNase A for different durations (0 to 96 hours). At the end of the incubation, the size and amount of duplexes were detected by agarose gel electrophoresis.

For data set [4], the system named is Rag1-40 target sequence in the 3′ UTR of firefly luciferase, COS-1 cells.

Regarding `CO[C@@]12[C@H](COC(N)=O)C3=C(C(=O)C(C)=C(N)C3=O)N1C[C@@H]1N[C@@H]12` [MMC, Mitomycin C, reference compound], the “Relative proliferation proportion of J82 cells” value in data set [1] (RAG1-40-31 0 nM + MMC 1 nM) amounted to 99.9%; in data set [1] (RAG1-40-31 0 nM + MMC 10 nM) it was 99.9%; in data set [1] (RAG1-40-31 0 nM + MMC 100 nM), 99.9%; in data set [1] (RAG1-40-31 0 nM + MMC 1000 nM), 100.0%; in data set [1] (RAG1-40-31 0 nM + MMC 10000 nM) it was 100.0%. Further, the “Relative proliferation proportion of T24 cells” value in data set [2] (RAG1-40-31 0 nM + MMC 1 nM), in data set [2] (RAG1-40-31 0 nM + MMC 10 nM), in data set [2] (RAG1-40-31 0 nM + MMC 100 nM), in data set [2] (RAG1-40-31 0 nM + MMC 1000 nM) and in data set [2] (RAG1-40-31 0 nM + MMC 10000 nM) was 100.0% each time.
Take `CCCCC(=O)OCC(=O)[C@]1(O)Cc2c(O)c3c(c(O)c2[C@@H](O[C@H]2C[C@H](NC(=O)C(F)(F)F)[C@H](O)[C@H](C)O2)C1)C(=O)c1c(OC)cccc1C3=O` [valrubicin, Valrubicin, reference compound]: the “Relative proliferation proportion of J82 cells” value in data set [1] (RAG1-40-31 0 nM + valrubicin 1 nM), in data set [1] (RAG1-40-31 0 nM + valrubicin 10 nM), in data set [1] (RAG1-40-31 0 nM + valrubicin 100 nM), in data set [1] (RAG1-40-31 0 nM + valrubicin 1000 nM) and in data set [1] (RAG1-40-31 0 nM + valrubicin 10000 nM) was 100.0% in each case. Moreover, the “Relative proliferation proportion of T24 cells” value in data set [2] (RAG1-40-31 0 nM + valrubicin 1 nm), in data set [2] (RAG1-40-31 0 nM + valrubicin 10 nm), in data set [2] (RAG1-40-31 0 nM + valrubicin 100 nm), in data set [2] (RAG1-40-31 0 nM + valrubicin 1000 nm) and in data set [2] (RAG1-40-31 0 nM + valrubicin 10000 nm) was 100.0% in each case.
Take “Rag1-40-2: saRNA duplex: sense mCmCAACUCAUUCUCCAAGmUmC (SEQ ID NO 5); antisense fUACUfUGGAGAAfUGAGUfUGGfCA (SEQ ID NO 7) (sense CCAACUCAUUCUCCAAGUC; antisense UACUUGGAGAAUGAGUUGGCA; 2'-OMe and 2'-F modifications; modified_base (1)..(19) (1,2,18,19)=2′-O-methyl(2′-OMe); modified_base (1)..(20) (1,5,12,17,20)=2′-fluoro)”: the “time to complete degradation” value in data set [3] was ≤ 24 h. For the same molecule, the “off-target effect compared to unmodified Rag1-40, in words” value in data set [4] is reported as “mitigated or similar off-target effects”.
The matching figures for “Rag1-40-4: saRNA duplex: sense mCmCAACUCAUUCUCCAAGmUmC (SEQ ID NO 5); antisense fUACUfUGGAGAAfUGAGUfUGG*fC*A (SEQ ID NO 9) (sense mCmCrArArCrUrCrArUrUrCrUrCrCrArArGmUmC; antisense fUrArCrUfUrGrGrArGrArAfUrGrArGrUfUrGrG*fC*rA)”: ≤ 24 h and “completely inhibited”.
“Rag1-40-6: saRNA duplex: sense mCmCAACUCAUUCUCCAAGmUmC (SEQ ID NO 5); antisense fU*A*fCfUfUGGAGAAfUGAGfUfUGG*fC*A (SEQ ID NO 11) (sense mCmCrArArCrUrCrArUrUrCrUrCrCrArArGmUmC; antisense fU*rA*fCfUfUrGrGrArGrArAfUrGrArGfUfUrGrG*fC*rA)”: the “degradation of duplex at 96 hours” value in data set [3] is “little or no signs of degradation”. In data set [4], the “off-target effect compared to unmodified Rag1-40, in words” value was “mitigated or similar off-target effects”.
The matching figures for “Rag1-40-7: saRNA duplex: sense mCmCAACUCAUUCUCCAAGmUmC (SEQ ID NO 5); antisense U*A*fCfUfUGGAGAAfUGAGfUfUGG*fC*A (SEQ ID NO 12) (sense mCmCrArArCrUrCrArUrUrCrUrCrCrArArGmUmC; antisense rU*rA*fCfUfUrGrGrArGrArAfUrGrArGfUfUrGrG*fC*rA)”: “little or no signs of degradation” and “mitigated or similar off-target effects”.
“Rag1-40-10: saRNA duplex: sense fCfCAACUCAUUCUCCAAGfUfC (SEQ ID NO 14); antisense fUACUfUGGAGAAfUGAGUfUGGfCA (SEQ ID NO 7) (sense CCAACUCAUUCUCCAAGUC; antisense UACUUGGAGAAUGAGUUGGCA; 2'-F modifications; modified_base (1)..(19) (1,2,18,19)=2′-fluoro; modified_base (1)..(20) (1,5,12,17,20)=2′-fluoro)”: the “time to complete degradation” value in data set [3] is ≤ 24 h. In addition, the “off-target effect compared to unmodified Rag1-40, in words” value in data set [4] was “completely inhibited”.
The matching figures for “Rag1-40-12: saRNA duplex: sense fCfCAACUCAUUCUCCAAGfUfC (SEQ ID NO 14); antisense fUACUfUGGAGAAfUGAGUfUGG*fC*A (SEQ ID NO 9) (sense CCAACUCAUUCUCCAAGUC; antisense UACUUGGAGAAUGAGUUGGCA; 2'-F and phosphorothioate modifications; modified_base (1)..(19) (1,2,18,19)=2′-fluoro; modified_base (1)..(20) (1,5,12,17,20)=2′-fluoro; modified_base (19)..(21) (19,20,21)=phosphorothioate (PS) backbone modification)”: ≤ 24 h and “mitigated or similar off-target effects”.
The matching figures for “Rag1-40-18: saRNA duplex: sense mCmCAACUCAUUCUCCAAG*U*C (SEQ ID NO 15); antisense fUACUfUGGAGAAfUGAGUfUGGfCA (SEQ ID NO 7) (sense CCAACUCAUUCUCCAAGUC; antisense UACUUGGAGAAUGAGUUGGCA; 2'-OMe, 2'-F, phosphorothioate modifications; modified_base (1)..(2) (1,2)=2′-O-methyl(2′-OMe); modified_base (17)..(19) (17,18,19)=phosphorothioate (PS) backbone modification; modified_base (1)..(20) (1,5,12,17,20)=2′-fluoro)”: ≤ 24 h and “mitigated or similar off-target effects”.
